Consider six compounds from patent US7880007B2, “Bicyclic substituted phenyl piperidine modulators of muscarinic receptors” (Vertex Pharmaceuticals Incorporated, priority 2004, dated 2011).

What all share (type): cell-based
The target in one experiment is T1, M1 muscarinic receptor (Homo sapiens, UniProt P11229).
T1 construct: expressed in transfected cells; host or cells: CHO (M1-CHO)
T1 sequence (P11229 1-460): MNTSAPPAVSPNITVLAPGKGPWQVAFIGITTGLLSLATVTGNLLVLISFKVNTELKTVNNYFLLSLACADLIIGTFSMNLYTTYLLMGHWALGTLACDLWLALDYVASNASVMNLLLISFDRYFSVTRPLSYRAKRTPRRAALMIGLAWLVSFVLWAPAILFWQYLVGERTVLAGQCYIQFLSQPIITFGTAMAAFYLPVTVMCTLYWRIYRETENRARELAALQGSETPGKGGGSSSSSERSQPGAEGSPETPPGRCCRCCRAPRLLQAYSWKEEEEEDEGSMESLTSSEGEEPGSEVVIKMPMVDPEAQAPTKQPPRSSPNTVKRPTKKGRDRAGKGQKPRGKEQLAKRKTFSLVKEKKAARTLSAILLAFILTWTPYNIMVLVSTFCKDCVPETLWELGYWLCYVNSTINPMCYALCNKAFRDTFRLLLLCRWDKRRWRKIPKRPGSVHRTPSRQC
The experiment in a line: Functional mobilization of intracellular calcium (FLIPR), M1-CHO cells. To be noted: for Emax: 100% efficacy = maximum response obtained with the Carbachol control; for M1 Activity: M1-CHO cells, calcium mobilization (FLIPR). Put shortly: (§1)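 Calcium mobilisation read by FLIPR over 60 s (ex 488/em 540 nm) in recombinant muscarinic CHO lines loaded with calcium dye plus 1 mM probenecid. Compounds tested as agonists alone, or as inhibitors against EC80 carbachol after 15 min pre-incubation or co-addition; 0.5% DMSO; efficacy scaled to carbachol maximal response.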

The target in another experiment is T2, M4 muscarinic receptor (Homo sapiens, UniProt P08173).
T2 construct: expressed in transfected cells; host or cells: CHO (M4-CHO)
T2 sequence (P08173 1-479): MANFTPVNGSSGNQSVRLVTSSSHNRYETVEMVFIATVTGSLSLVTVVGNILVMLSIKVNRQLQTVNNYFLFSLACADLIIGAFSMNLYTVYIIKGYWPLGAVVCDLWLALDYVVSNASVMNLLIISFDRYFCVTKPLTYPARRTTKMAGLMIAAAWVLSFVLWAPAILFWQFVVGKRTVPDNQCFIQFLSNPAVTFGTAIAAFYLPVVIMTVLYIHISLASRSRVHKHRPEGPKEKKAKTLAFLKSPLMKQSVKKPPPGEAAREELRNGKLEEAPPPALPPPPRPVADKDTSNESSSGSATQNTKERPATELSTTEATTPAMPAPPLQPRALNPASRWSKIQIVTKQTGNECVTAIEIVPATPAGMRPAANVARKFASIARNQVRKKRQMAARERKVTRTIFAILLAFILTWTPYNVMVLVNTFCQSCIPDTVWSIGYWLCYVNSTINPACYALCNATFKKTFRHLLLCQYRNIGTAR
As to the kind of experiment: Functional mobilization of intracellular calcium (FLIPR), M4-CHO cells. To be noted: for Emax: 100% efficacy = maximum response obtained with the Carbachol control; for M4 Activity: M4-CHO cells, calcium mobilization (FLIPR). Put shortly: as §1
On the technique in general: Calcium flux is commonly read through the fluorescence of an indicator in the cells.

The next experiment addresses T3, M2 muscarinic receptor (Homo sapiens, UniProt P08172).
T3 construct: expressed in transfected cells; host or cells: CHO (M2-CHO)
T3 sequence (P08172 1-466): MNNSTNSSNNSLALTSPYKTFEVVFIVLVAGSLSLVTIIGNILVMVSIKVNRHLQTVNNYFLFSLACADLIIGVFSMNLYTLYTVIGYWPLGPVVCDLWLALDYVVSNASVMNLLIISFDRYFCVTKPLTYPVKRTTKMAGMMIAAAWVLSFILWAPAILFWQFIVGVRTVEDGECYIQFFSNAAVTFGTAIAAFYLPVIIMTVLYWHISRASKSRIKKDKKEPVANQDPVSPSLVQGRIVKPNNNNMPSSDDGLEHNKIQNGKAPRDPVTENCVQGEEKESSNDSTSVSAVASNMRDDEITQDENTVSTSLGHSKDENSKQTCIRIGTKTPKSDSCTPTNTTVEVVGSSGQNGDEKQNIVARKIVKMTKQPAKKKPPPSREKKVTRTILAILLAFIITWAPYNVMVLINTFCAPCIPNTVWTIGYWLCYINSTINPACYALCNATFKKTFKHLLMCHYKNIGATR
The experiment in a line: Functional mobilization of intracellular calcium (FLIPR), M2-CHO cells. As to conditions: for Emax: 100% efficacy = maximum response obtained with the Carbachol control; for M2 Activity: M2-CHO cells, calcium mobilization (FLIPR). An outline of the steps: as §1

The next experiment has as its target T4, M3 muscarinic receptor (Homo sapiens, UniProt P20309).
T4 construct: expressed in transfected cells; host or cells: CHO (M3-CHO)
As to the kind of experiment: Functional mobilization of intracellular calcium (FLIPR), M3-CHO cells. As to conditions: for Emax: 100% efficacy = maximum response obtained with the Carbachol control; for M3 Activity: M3-CHO cells, calcium mobilization (FLIPR). An outline of the steps:
as §1

T4 sequence (P20309 whole entry): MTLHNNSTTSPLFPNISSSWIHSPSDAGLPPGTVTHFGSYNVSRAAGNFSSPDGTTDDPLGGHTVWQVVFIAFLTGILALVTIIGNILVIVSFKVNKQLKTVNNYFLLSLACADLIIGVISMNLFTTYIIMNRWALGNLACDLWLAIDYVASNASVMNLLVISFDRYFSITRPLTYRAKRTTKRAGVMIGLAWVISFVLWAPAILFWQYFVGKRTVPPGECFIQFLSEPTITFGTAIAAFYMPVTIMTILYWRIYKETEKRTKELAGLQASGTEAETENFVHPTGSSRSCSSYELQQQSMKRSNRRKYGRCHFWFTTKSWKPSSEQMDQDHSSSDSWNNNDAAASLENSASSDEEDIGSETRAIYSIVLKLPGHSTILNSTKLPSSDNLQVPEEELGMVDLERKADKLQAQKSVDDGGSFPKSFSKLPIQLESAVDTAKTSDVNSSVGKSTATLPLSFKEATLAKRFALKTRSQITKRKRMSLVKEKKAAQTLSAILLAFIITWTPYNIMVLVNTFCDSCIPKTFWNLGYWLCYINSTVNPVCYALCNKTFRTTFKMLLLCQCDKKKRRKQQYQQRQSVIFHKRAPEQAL

On to `COc1ccc(Cl)cc1C1(OC)CCN(C[C@H]2C[C@H]3C=C[C@@H]2C3)CC1` [Compound 140, 1-(((1S,2S,4S)-bicyclo[2.2.1]hept-5-en-2-yl)methyl)-4-(5-chloro-2-methoxyphenyl)-4-methoxypiperidine], for which, at M1 muscarinic receptor, the Emax was in the range of 25 to 100% and the “M1 Activity” value is on record as “++ (activity was measured to be from 1.0 μM to 5.0 μM)”. Besides, at M4 muscarinic receptor, the Emax fell in the range of 25 to 100% and the “M4 Activity” value is on record as “+++ (activity was measured to be less than 1.0 μM)”. On M2 muscarinic receptor, the Emax is 25 to 100% and the “M2 Activity” value is given as “++ (activity was measured to be from 1.0 μM to 5.0 μM)”. Besides, on M3 muscarinic receptor, the Emax is less than 25% and the “M3 Activity” value was “+ (activity was measured to be greater than 5.0 μM)”.

As to `Clc1ccc(-c2ccccc2C2CCN([C@H]3C[C@H]4CC[C@H]3C4)CC2)cc1` [Compound 142], at M1 muscarinic receptor, the Emax lay within 25 to 100% and the “M1 Activity” value is “+ (activity was measured to be greater than 5.0 μM)”. For the same compound, on M4 muscarinic receptor, the Emax is 25 to 100% and the “M4 Activity” value was “++ (activity was measured to be from 1.0 μM to 5.0 μM)”. Moreover, on M2 muscarinic receptor, the Emax lay within 25 to 100% and the “M2 Activity” value is listed as “+ (activity was measured to be greater than 5.0 μM)”. Moreover, at M3 muscarinic receptor, the Emax was less than 25% and the “M3 Activity” value was “+ (activity was measured to be greater than 5.0 μM)”.

On to `COc1ccc(-c2cccc(Cl)c2)cc1C1CCN([C@@H]2C[C@H]3CC[C@H]2C3)CC1` [Compound 143], for which, at M1 muscarinic receptor, the Emax is less than 25% and the “M1 Activity” value is listed as “+ (activity was measured to be greater than 5.0 μM)”. On M4 muscarinic receptor, the Emax was 25 to 100% and the “M4 Activity” value was “+ (activity was measured to be greater than 5.0 μM)”. Also, on M2 muscarinic receptor, the Emax was less than 25% and the “M2 Activity” value is “+ (activity was measured to be greater than 5.0 μM)”. At M3 muscarinic receptor, the Emax was less than 25% and the “M3 Activity” value is given as “+ (activity was measured to be greater than 5.0 μM)”.

Regarding `COc1ccc(-c2cccc(C(N)=O)c2)cc1C1CCN([C@@H]2C[C@H]3CC[C@H]2C3)CC1` [Compound 144], at M1 muscarinic receptor, the Emax was less than 25% and the “M1 Activity” value is “+ (activity was measured to be greater than 5.0 μM)”. At M4 muscarinic receptor, the Emax is less than 25% and the “M4 Activity” value is listed as “+ (activity was measured to be greater than 5.0 μM)”. Further, at M2 muscarinic receptor, the maximum response (Emax) is less than 25% and the “M2 Activity” value is “+ (activity was measured to be greater than 5.0 μM)”. On M3 muscarinic receptor, the maximal response (Emax) was less than 25% and the “M3 Activity” value is given as “+ (activity was measured to be greater than 5.0 μM)”.

As for `CCOC(=O)N1CCC(CN2CCC(c3cc(-c4ccc(S(C)(=O)=O)cc4)ccc3OC)CC2)CC1` [Compound 146], at M1 muscarinic receptor, the Emax is 25 to 100% and the “M1 Activity” value is “+++ (activity was measured to be less than 1.0 μM)”. Also, at M4 muscarinic receptor, the maximum response (Emax) is 25 to 100% and the “M4 Activity” value is reported as “+++ (activity was measured to be less than 1.0 μM)”. In addition, on M2 muscarinic receptor, the Emax was less than 25% and the “M2 Activity” value was “+ (activity was measured to be greater than 5.0 μM)”. At M3 muscarinic receptor, the Emax was less than 25% and the “M3 Activity” value was “+ (activity was measured to be greater than 5.0 μM)”.

Turning to `c1ccc(C2CCN([C@H]3C[C@H]4CC[C@H]3C4)CC2)c(OCC2CCCCO2)c1` (stereo partly drawn) [Compound 147], on M1 muscarinic receptor, the maximal response (Emax) was 25 to 100% and the “M1 Activity” value is “++ (activity was measured to be from 1.0 μM to 5.0 μM)”. Also, at M4 muscarinic receptor, the Emax lay in the range of 25 to 100% and the “M4 Activity” value is recorded as “+++ (activity was measured to be less than 1.0 μM)”. At M2 muscarinic receptor, the Emax was in the range of 25 to 100% and the “M2 Activity” value is recorded as “++ (activity was measured to be from 1.0 μM to 5.0 μM)”. At M3 muscarinic receptor, the Emax was less than 25% and the “M3 Activity” value is given as “+ (activity was measured to be greater than 5.0 μM)”.

Broadly, the Emax is the size of the effect at its maximum, as opposed to the concentration needed.
